Bridge positions count the residues as written; N and C are the ends. Square brackets hold non-standard residues; d marks the D form. Ends that are not written are not given here. Met(O) = CS(=O)CC[C@H](N)C(=O)O
What was measured:
Type in all cases: in vivo, Kunming white mice
normal mice [1] = experiment: Hypoglycemic effect of synthetic polypeptides on normal mice after subcutaneous injection (Example 9); settings: 1 mg/mL at 0.05 ml/10 g, single subcutaneous injection on the back; for Blood glucose level prior to administration: baseline
normal mice [2] = experiment: Hypoglycemic effect on normal mice after subcutaneous injection on the back (Example 5); settings: for Blood glucose level at 15 min after administration / Blood glucose level at 30 min after administration / Blood glucose level at 45 min after administration / Blood glucose level at 60 min after administration / Blood glucose level prior to administration: single subcutaneous injection on the back; for Blood glucose level prior to administration: baseline
normal mice [3] = experiment: Hypoglycemic effect of polypeptides on normal mice after tail vein injection (Example 4); settings: 1 mg/mL at 0.05 ml/10 g, single tail vein injection; for Blood glucose level prior to administration: baseline
normal mice [4] = experiment: Hypoglycemic effect on normal mice after tail vein, subcutaneous and intramuscular injection (Example 8); settings: 1 mg/mL at 0.05 ml/10 g once; for Blood glucose level prior to administration: baseline
[5] = Group A high-dose, 1 mg/mL at 0.10 ml/10 g
[6] = Group B medium-dose, 1 mg/mL at 0.05 ml/10 g
[7] = Group C low-dose, 1 mg/mL at 0.025 ml/10 g
[8] = Group B, subcutaneous injection on the back
[9] = Group C, intramuscular injection in the lateral thigh

Substance	Blood glucose level at 15 min after administration (normal mice [1]) [mmol/L]	Blood glucose level at 30 min after administration (normal mice [1]) [mmol/L]	Blood glucose level at 45 min after administration (normal mice [1]) [mmol/L]	Blood glucose level at 60 min after administration (normal mice [1]) [mmol/L]	Blood glucose level prior to administration (normal mice [1]) [mmol/L]	other results
VSCNGVCSPFEIPPCGSPLCRCIPAGLVIGNCRNPYG (disulfide 15-32, 3-20, 7-22) [SEQ ID No. 63]	5.9 ± 0.5	4.6 ± 0.4	3.2 ± 0.3	3.5 ± 0.2	6.6 ± 0.6	–
ASCNGVCSPFEMoxPPCGTSACRCIPVGLFIGYCRNPSG (ASCNGVCSPFE[Met(O)]PPCGTSACRCIPVGLFIGYCRNPSG; disulfide 15-32, 3-20, 7-22; listed as Pisum sativum) [SEQ ID No. 8]	–	–	–	–	–	Blood glucose level at 15 min after administration (normal mice [2]; [5]): 5.1 ± 0.4 mmol/L; Blood glucose level at 30 min after administration (normal mice [2]; [5]): 3.0 ± 0.4 mmol/L; Blood glucose level at 45 min after administration (normal mice [2]; [5]): 2.2 ± 0.2 mmol/L; Blood glucose level at 60 min after administration (normal mice [2]; [5]): 1.7 ± 0.1 mmol/L; Blood glucose level prior to administration (normal mice [2]; [5]): 7.4 ± 0.5 mmol/L; Blood glucose level at 15 min after administration (normal mice [2]; [6]): 5.2 ± 0.4 mmol/L; Blood glucose level at 30 min after administration (normal mice [2]; [6]): 4.3 ± 0.5 mmol/L; Blood glucose level at 45 min after administration (normal mice [2]; [6]): 3.2 ± 0.3 mmol/L; Blood glucose level at 60 min after administration (normal mice [2]; [6]): 2.6 ± 0.2 mmol/L; Blood glucose level prior to administration (normal mice [2]; [6]): 7.1 ± 0.6 mmol/L; Blood glucose level at 15 min after administration (normal mice [2]; [7]): 6.2 ± 0.3 mmol/L; Blood glucose level at 30 min after administration (normal mice [2]; [7]): 4.9 ± 0.3 mmol/L; Blood glucose level at 45 min after administration (normal mice [2]; [7]): 3.8 ± 0.2 mmol/L; Blood glucose level at 60 min after administration (normal mice [2]; [7]): 4.6 ± 0.2 mmol/L; Blood glucose level prior to administration (normal mice [2]; [7]): 7.3 ± 0.4 mmol/L; hypoglycemic activity (conclusion) (normal mice [2]; normal mice, subcutaneous injection): explicit hypoglycemic activity
ISCNGVCSPFDMPPCGSPACRCIPAGLLIGYCRNPSG (disulfide 15-32, 3-20, 7-22) [SEQ ID No. 38]	4.9 ± 0.3	3.6 ± 0.4	3.1 ± 0.2	3.5 ± 0.3	6.3 ± 0.5	–
ASCNGVCSPFEMoxPPCGSSACRCIPVGLLIGYCRNPSG (ASCNGVCSPFE[Met(O)]PPCGSSACRCIPVGLLIGYCRNPSG; disulfide 15-32, 3-20, 7-22; listed as Pisum sativum) [SEQ ID No. 6]	–	–	–	–	–	Blood glucose level at 15 min after administration (normal mice [3]): 5.6 ± 0.3 mmol/L; Blood glucose level at 30 min after administration (normal mice [3]): 4.2 ± 0.3 mmol/L; Blood glucose level prior to administration (normal mice [3]): 6.6 ± 0.4 mmol/L
ASCNGVCSPFEMPPCGTSACRCIPVGLVIGYCRNPSG (disulfide 15-32, 3-20, 7-22; listed as Pisum sativum) [SEQ ID No. 3]	–	–	–	–	–	Blood glucose level at 15 min after administration (normal mice [4]; Group A, tail vein injection): 5.6 ± 0.3 mmol/L; Blood glucose level at 30 min after administration (normal mice [4]; Group A, tail vein injection): 4.5 ± 0.2 mmol/L; Blood glucose level at 45 min after administration (normal mice [4]; Group A, tail vein injection): 3.2 ± 0.1 mmol/L; Blood glucose level at 60 min after administration (normal mice [4]; Group A, tail vein injection): 2.4 ± 0.2 mmol/L; Blood glucose level prior to administration (normal mice [4]; Group A, tail vein injection): 7.3 ± 0.5 mmol/L; Blood glucose level at 15 min after administration (normal mice [4]; [8]): 5.2 ± 0.2 mmol/L; Blood glucose level at 30 min after administration (normal mice [4]; [8]): 3.5 ± 0.3 mmol/L; Blood glucose level at 45 min after administration (normal mice [4]; [8]): 2.8 ± 0.2 mmol/L; Blood glucose level at 60 min after administration (normal mice [4]; [8]): 2.1 ± 0.1 mmol/L; Blood glucose level prior to administration (normal mice [4]; [8]): 6.2 ± 0.3 mmol/L; Blood glucose level at 15 min after administration (normal mice [4]; [9]): 6.3 ± 0.5 mmol/L; Blood glucose level at 30 min after administration (normal mice [4]; [9]): 4.8 ± 0.4 mmol/L; Blood glucose level at 45 min after administration (normal mice [4]; [9]): 3.5 ± 0.3 mmol/L; Blood glucose level at 60 min after administration (normal mice [4]; [9]): 2.6 ± 0.2 mmol/L; Blood glucose level prior to administration (normal mice [4]; [9]): 8.1 ± 0.7 mmol/L
ISCNGVCSPFEIPPCGSSLCRCIPAGLLVGKCRNPSG (disulfide 15-32, 3-20, 7-22) [SEQ ID No. 44]	6.3 ± 0.3	5.5 ± 0.2	3.8 ± 0.3	2.6 ± 0.2	7.2 ± 0.3	–
ASCNGVCSPFEIPPCGSPLCRCIPVGLVIGNCRNPYG (disulfide 15-32, 3-20, 7-22) [SEQ ID No. 21]	6.7 ± 0.4	5.2 ± 0.3	4.3 ± 0.2	3.6 ± 0.1	7.8 ± 0.4	–
VSCNGVCSPFDMPPCGTSACRCIPAGLFIGYCRNPSG (disulfide 15-32, 3-20, 7-22) [SEQ ID No. 61]	5.6 ± 0.4	4.3 ± 0.3	3.6 ± 0.2	2.3 ± 0.1	6.9 ± 0.4	–
VSCNGVCSPFDIPPCGTPACRCIPYGLFVGNCRNPYG (disulfide 15-32, 3-20, 7-22) [SEQ ID No. 52]	6.4 ± 0.4	5.4 ± 0.5	4.3 ± 0.3	2.9 ± 0.3	7.1 ± 0.3	–
ASCNGVCSPFEMoxPPCGTSACRCIPVGLVVGYCRNPSG (ASCNGVCSPFE[Met(O)]PPCGTSACRCIPVGLVVGYCRNPSG; disulfide 15-32, 3-20, 7-22; listed as Pisum sativum) [SEQ ID No. 2]	–	–	–	–	–	Blood glucose level at 15 min after administration (normal mice [3]): 6.5 ± 0.2 mmol/L; Blood glucose level at 30 min after administration (normal mice [3]): 4.6 ± 0.3 mmol/L; Blood glucose level prior to administration (normal mice [3]): 7.2 ± 0.3 mmol/L
ISCNGVCSPFDIPPCGTPLCRCIPAGLFVGKCRNPYG (disulfide 15-32, 3-20, 7-22) [SEQ ID No. 36]	6.2 ± 0.4	4.3 ± 0.3	3.5 ± 0.2	2.8 ± 0.1	7.1 ± 0.5	–
ISCNGVCSPFEMPPCGTSLCRCIPAGLVVGYCRNPSG (disulfide 15-32, 3-20, 7-22) [SEQ ID No. 50]	6.2 ± 0.5	5.3 ± 0.2	4.6 ± 0.3	3.2 ± 0.3	7.3 ± 0.6	–
ASCNGVCSPFDMPPCGTSACRCIPAGLFIGKCRNPYG (disulfide 15-32, 3-20, 7-22) [SEQ ID No. 17]	6.6 ± 0.5	4.9 ± 0.4	3.6 ± 0.3	3.0 ± 0.2	8.2 ± 0.7	–
VSCNGVCSPFEMPPCGSSACRCIPYGLVVGNCRNPSG (disulfide 15-32, 3-20, 7-22) [SEQ ID No. 68]	5.5 ± 0.4	4.2 ± 0.3	3.4 ± 0.4	2.2 ± 0.1	6.7 ± 0.6	–
ASCNGVCSPFDIPPCGTPLCRCIPVGLVIGNCRNPYG (disulfide 15-32, 3-20, 7-22) [SEQ ID No. 13]	6.1 ± 0.3	4.4 ± 0.4	3.5 ± 0.3	2.6 ± 0.3	7.4 ± 0.6	–
